Like-named read-outs stand apart in the source and are kept apart here.
Experiments:
hDHFR = hDHFR (Homo sapiens (Human), UniProt P00374); assay: DHFR inhibition assay (diaphorase/resazurin coupled, fluorescence of resorufin), human DHFR; format: biochemical
T. cruzi DHFR (tcDHFR) = T. cruzi DHFR (tcDHFR) (Trypanosoma cruzi, UniProt Q27793); assay: DHFR inhibition assay (diaphorase/resazurin coupled), T. cruzi DHFR; format: biochemical; details: for tcDHFR pIC50-DHFR primary assay: Table 12, T. cruzi DHFR; for Average DHFR selectivity (h/tc): hDHFR IC50/tcDHFR IC50
T. brucei DHFR (tbDHFR) = T. brucei DHFR (tbDHFR) (Trypanosoma brucei brucei, UniProt Q27783); assay: DHFR inhibition assay (diaphorase/resazurin coupled), T. brucei DHFR; format: biochemical; details: Table 13; T. brucei DHFR
L. major DHFR (1mDHFR) = L. major DHFR (1mDHFR) (Leishmania major, UniProt P07382); format: biochemical; details: for Average DHFR selectivity (h/lm)*-DHFR IC50: hDHFR IC50/L. major DHFR IC50
[1] = molecular target: P. falciparum DHFR (pfDHFR) (Plasmodium falciparum (isolate K1 / Thailand), UniProt P13922); assay: DHFR inhibition assay (diaphorase/resazurin coupled), P. falciparum DHFR; format: biochemical; details: for pfDHFR pIC50-DHFR primary assay: Table 15, P. falciparum DHFR
T. gondii DHFR (tgDHFR) = T. gondii DHFR (tgDHFR) (Toxoplasma gondii, UniProt Q07422); details: for Average DHFR selectivity (h/tg): hDHFR IC50/tgDHFR IC50

Chain of hDHFR (P00374 whole entry): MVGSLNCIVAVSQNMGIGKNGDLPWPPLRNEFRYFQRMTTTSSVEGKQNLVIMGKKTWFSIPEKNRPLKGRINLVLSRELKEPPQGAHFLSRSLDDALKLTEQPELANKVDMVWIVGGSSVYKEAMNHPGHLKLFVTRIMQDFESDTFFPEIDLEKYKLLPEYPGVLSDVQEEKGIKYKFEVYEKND

**Q.** Which results are given for `Nc1ncc(N2CCN(c3ccccc3)CC2)c(N)n1` [Compound 4, 5-(4-phenylpiperazin-1-yl)pyrimidine-2,4-diamine]?
**A.** hDHFR pIC50-DHFR primary assay (hDHFR; Table 11): 4.90; hDHFR pIC50-DHFR primary assay (hDHFR; Table 12): 4.90; hDHFR pIC50-DHFR primary assay (hDHFR; Table 13): 4.90; hDHFR pIC50-DHFR primary assay (hDHFR; Table 14): 4.90; hDHFR pIC50-DHFR primary assay (hDHFR; Table 15): 4.90; tcDHFR pIC50-DHFR primary assay (T. cruzi DHFR (tcDHFR)): 7.04; tbDHFR pIC50-DHFR primary assay (T. brucei DHFR (tbDHFR)): 7.50; mDHFR pIC50-DHFR primary assay (L. major DHFR (1mDHFR); Table 14, L. major DHFR): 6.30; pfDHFR pIC50-DHFR primary assay [1]: 8.72; tgDHFR pIC50-DHFR primary assay (T. gondii DHFR (tgDHFR)): 6.68

**Q.** `Nc1ncc(N2CCN(c3ccc(-c4ccccc4)cc3)CC2)c(N)n1` [Compound 12, 5-(4-([1,1′-biphenyl]-4-yl)piperazin-1-yl)pyrimidine-2,4-diamine] was tested. Which “Average DHFR selectivity (h/lm)*-DHFR IC50” value (L. major DHFR (1mDHFR)) did it give?
**A.** 29

**Q.** With `Nc1ncc(N2CCN(c3cnc4ccccc4c3)CC2)c(N)n1` [Compound 19, 5-(4-(quinolin-3-yl)piperazin-1-yl)pyrimidine-2,4-diamine] as the molecule, how does the “Average DHFR selectivity (h/lm)*-DHFR IC50” value (L. major DHFR (1mDHFR)) read?
**A.** 35

**Q.** Which “pfDHFR pIC50-DHFR primary assay” value [1] does the source give for `CCCc1nc(N)nc(N)c1N1CCN(c2ccccc2)CC1` [Compound 49, 5-(4-phenylpiperazin-1-yl)-6-propylpyrimidine-2,4-diamine] here?
**A.** 7.85

**Q.** And the “Average DHFR selectivity (h/pf)*-DHFR IC50” value ([1]; hDHFR IC50/pfDHFR IC50)?
**A.** 806

**Q.** And the “Average DHFR selectivity (h/tg)” value (T. gondii DHFR (tgDHFR))?
**A.** 501.19

**Q.** Which “hDHFR pIC50-DHFR primary assay” value (hDHFR; Table 11) does the source give for `COc1ncc(-c2cccc(N3CCN(c4cnc(N)nc4N)CC3)c2)cn1` [Compound 78, 5-(4-(3-(2-methoxypyrimidin-5-yl)phenyl)piperazin-1-yl)pyrimidine-2,4-diamine] here?
**A.** 5.92

**Q.** And the “hDHFR pIC50-DHFR primary assay” value (hDHFR; Table 13)?
**A.** 6.05

**Q.** And the “hDHFR pIC50-DHFR primary assay” value (hDHFR; Table 15)?
**A.** 6.04

**Q.** What about the “tbDHFR pIC50-DHFR primary assay” value (T. brucei DHFR (tbDHFR)) of the same molecule?
**A.** 8.68

**Q.** And the “pfDHFR pIC50-DHFR primary assay” value [1]?
**A.** 9.15

**Q.** What about the “tgDHFR pIC50-DHFR primary assay” value (T. gondii DHFR (tgDHFR); Table 11, T. gondii DHFR) of the same molecule?
**A.** 8.49

**Q.** `Nc1ncc(N2CCN(c3cccc(-c4ccnc(F)c4)c3)CC2)c(N)n1` [Compound 90, 5-(4-(3-(2-fluoropyridin-4-yl)phenyl)piperazin-1-yl)pyrimidine-2,4-diamine] was tested. Which “Average DHFR selectivity (h/lm)*-DHFR IC50” value (L. major DHFR (1mDHFR)) did it give?
**A.** 27

**Q.** Which results are given for `Nc1ncc(N2CCN(c3cccc(-c4cnc(N5CCC5)nc4)c3)CC2)c(N)n1` [Compound 98, 5-(4-(3-(2-(azetidin-1-yl)pyrimidin-5-yl)phenyl)piperazin-1-yl)pyrimidine-2,4-diamine]?
**A.** Average DHFR selectivity (h/lm)*-DHFR IC50 (L. major DHFR (1mDHFR)): 48; Average DHFR selectivity (h/tg) (T. gondii DHFR (tgDHFR)): 130.84

**Q.** `Nc1ncc(N2CCN(c3cccc(-c4cccnn4)c3)CC2)c(N)n1` [Compound 107] was tested. Which “Average DHFR selectivity (h/lm)*-DHFR IC50” value (L. major DHFR (1mDHFR)) did it give?
**A.** 30

**Q.** `COc1ccc(N2CCN(c3cnc(N)nc3N)CC2)cc1` [Compound 114, 5-(4-(4-methoxyphenyl)piperazin-1-yl)pyrimidine-2,4-diamine] was tested. Which “Average DHFR selectivity (h/tc)” value (T. cruzi DHFR (tcDHFR)) did it give?
**A.** 144

**Q.** How did the “Average DHFR selectivity (h/tc)” value (T. cruzi DHFR (tcDHFR)) turn out when `Nc1ncc(N2CCN(c3ccc(C(F)(F)F)cc3)CC2)c(N)n1` [Compound 115, 5-(4-(4-(trifluoromethyl)phenyl)piperazin-1-yl)pyrimidine-2,4-diamine] was run?
**A.** 132

**Q.** For `Nc1ncc(N2CCN(c3ccc(F)cc3)CC2)c(N)n1` [Compound 116, 5-(4-(4-fluorophenyl)piperazin-1-yl)pyrimidine-2,4-diamine], which “Average DHFR selectivity (h/tc)” value (T. cruzi DHFR (tcDHFR)) is on record?
**A.** 100

**Q.** With `CN(Cc1cnc2nc(N)nc(N)c2n1)c1ccc(C(=O)N[C@@H](CCC(=O)O)C(=O)O)cc1` [Methotrexate] as the molecule, how does the “tcDHFR pIC50-DHFR primary assay” value (T. cruzi DHFR (tcDHFR)) read?
**A.** 8.96

Reference: patent US11530198B2, “Compositions and methods for treating infections” (priority 2016, dated 2022)
